Results taken from patent publication US5266571A, “Treatment of hemorrhoids with 5-HT2 antagonists” (priority 1992, dated 1993).
Where a name gives a salt, the structure may show the parent alone. Read-outs that look alike come from different tables or passages of the source.

Legend:
Alpha-receptor = assay: Receptor Blocking Profile, Alpha-receptor; type: binding; conditions: read-out: Receptor Blocking Profile IC-50, Alpha-receptor
Procedure: (§1) The IC- 50 is the concentration that inhibits agonist binding to the
(§2) receptor by 50%. The better the blocker a compound is, the smaller is the
(§3) concentration thereof needed to block the receptor, i.e., the smaller the
(§4) IC-50, the better receptor blocker or antagonist the compound is.
(§5) The receptor blocking profile is determined as follows: Labeled 5-HT is mixed with a purified preparation containing the receptor. The amount of labeled material that attaches itself to the receptor and cannot be washed off is calculated. In a series of other similar tubes, the same quantity of labeled 5-HT is mixed with increasing concentrations of the antagonist which will antagonize the binding of 5-HT to the receptor. Decreasing quantities of the labeled material will bind to the receptor. The concentration of the antagonist that inhibits the binding by 50% is then calculated.

Dopamine-2 = Dopamine-2 (Homo sapiens, UniProt P14416); assay: Receptor Blocking Profile, Dopamine-2; type: binding
Chain of Dopamine-2 (P14416 whole entry): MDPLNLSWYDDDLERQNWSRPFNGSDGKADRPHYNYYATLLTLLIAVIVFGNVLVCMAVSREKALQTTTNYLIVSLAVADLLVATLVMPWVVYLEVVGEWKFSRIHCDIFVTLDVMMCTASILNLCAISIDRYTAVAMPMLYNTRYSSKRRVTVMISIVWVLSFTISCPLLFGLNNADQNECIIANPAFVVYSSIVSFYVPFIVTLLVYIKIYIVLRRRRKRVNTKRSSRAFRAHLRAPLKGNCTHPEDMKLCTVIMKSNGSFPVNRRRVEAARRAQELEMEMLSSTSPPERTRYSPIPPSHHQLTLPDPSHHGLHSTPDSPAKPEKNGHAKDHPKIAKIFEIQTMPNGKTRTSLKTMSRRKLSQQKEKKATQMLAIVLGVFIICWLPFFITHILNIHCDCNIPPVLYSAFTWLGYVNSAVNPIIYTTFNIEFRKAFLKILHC

5-HT1 = assay: Receptor Blocking Profile, 5-HT1; type: binding; conditions: read-out: Receptor Blocking Profile IC-50, 5-HT1
Procedure: as §1, §2, §3, §4, §5

human colon veins = assay: Activity against 5-HT on the human colon in vitro (contraction of human colonic vein rings); conditions: for blocking contractile effects of 5-HT on human colon rings, correlation with receptor blocking potencies: human colon rings in vitro, compared with the receptors tested; for IC50: read-out: IC-50, activity against 5-HT on the human colon in vitro
Procedure: Human colonic vein rings were isolated from discarded human colon tissue following surgery (colostomy). The rings were prepared immediately after surgery and were suspended in buffered physiological saline. The contractions produced by the rings in response to the addition of 5-HT in vitro were measured. The effects of three selected 5-HT2 antagonist compounds on antagonizing 5-HT contractile effects were also determined.
This activity is determined as follows: Rings of human colon veins are prepared and hung in a tissue bath. The contractions of the rings are monitored. Adding 5-HT causes the rings to contract. Pre-addition of increasing concentrations of the antagonist result in lesser contractions. The amount of antagonist causing a 50% inhibition of the contractions is then calculated.

5-HT2 receptor [1] = conditions: background statement; cited from earlier work
5-HT2 receptor [2] = conditions: background statement; cited from earlier work; remark: listed apart in the source
5-HT2 = 5-HT2 (Homo sapiens, UniProt P28223); assay: Receptor Blocking Profile: inhibition of labeled 5-HT binding, 5-HT2
Chain of 5-HT2 (P28223 whole entry, species assumed): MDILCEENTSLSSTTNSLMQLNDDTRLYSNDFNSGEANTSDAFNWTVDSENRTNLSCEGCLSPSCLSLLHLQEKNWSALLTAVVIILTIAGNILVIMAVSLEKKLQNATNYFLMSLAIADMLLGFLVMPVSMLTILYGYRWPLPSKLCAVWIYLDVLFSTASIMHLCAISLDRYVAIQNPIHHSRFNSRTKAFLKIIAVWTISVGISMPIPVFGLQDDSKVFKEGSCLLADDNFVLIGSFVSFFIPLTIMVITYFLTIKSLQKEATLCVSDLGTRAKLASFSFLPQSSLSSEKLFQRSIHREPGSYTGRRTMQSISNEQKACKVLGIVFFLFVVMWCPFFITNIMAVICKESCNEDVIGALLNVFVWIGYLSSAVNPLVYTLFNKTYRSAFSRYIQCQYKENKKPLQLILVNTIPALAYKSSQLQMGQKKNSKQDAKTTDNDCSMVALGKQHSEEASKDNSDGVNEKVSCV
Procedure: as §5

[3] = human colon vein rings, antagonist pre-added, 5-HT-induced contraction
[4] = read-out: Receptor Blocking Profile IC-50, Dopamine-2

**Q.** For CCc1nn(CCCN2CCN(c3cccc(Cl)c3)CC2)c(=O)n1CCOc1ccccc1 [Compound II, 2-[3-[4-(3-chlorophenyl)-1-piperazinyl]propyl-5-ethyl-2,4-dihydro-4-(2-phenoxyethyl)-3H-1,2,4-triazol-3-one hydrochloride], which IC50 (Alpha-receptor) is on record?
**A.** Its IC50 is 160 nM.

**Q.** And the IC50 (Dopamine-2)?
**A.** The IC50 was over 1000 nM.

**Q.** And the IC50 (5-HT1)?
**A.** Its IC50 is over 1000 nM.

**Q.** What about the “blocking contractile effects of 5-HT on human colon rings, correlation with receptor blocking potencies” value (human colon veins) of the same compound?
**A.** Its value is “correlated best with their 5-HT2 blocking potencies”.

**Q.** What about the IC50 (human colon veins; [3]) of the same compound?
**A.** Its IC50 is 10 nM.

**Q.** For CN1C[C@@H](NS(=O)(=O)N(C)C)C[C@@H]2c3cccc4c3c(cn4C)C[C@H]21 [mesulergine], which “antagonism of binding of 5-HT to 5-HT2 receptor” value (5-HT2 receptor [1]) is on record?
**A.** The value was “antagonized”.

**Q.** Which “antagonism of binding of 5-HT to 5-HT2 receptor” value (5-HT2 receptor [1]) does the source give for O=C(c1ccc(F)cc1)C1CCN(CCn2c(=O)[nH]c3ccccc3c2=O)CC1 [ketanserin] here?
**A.** The value was “antagonized”.

**Q.** And the “inhibition of modulation of phosphatidylinositol turnover by 5-HT2 receptor” value (5-HT2 receptor [2])?
**A.** Its value is “inhibited”.

**Q.** What does the source list for O=C1CC2(CCCC2)CC(=O)N1CCCCN1CCN(c2nsc3ccccc23)CC1 [Compound III, 8-[4-[4-(1,2-benzisotriazol-3-yl)-1-piperazinyl]butyl]-8-azaspiro[4,5]decane-7,9-dione hydrochloride]?
**A.** IC50 (Alpha-receptor): 47 nM; IC50 (Dopamine-2; [4]): 8.4 nM; IC50 (5-HT1): 12.5 nM; IC50 (human colon veins; Homo sapiens): 1 nM; blocking contractile effects of 5-HT on human colon rings, correlation with receptor blocking potencies (human colon veins): correlated best with their 5-HT2 blocking potencies; IC50 (5-HT2; read-out: Receptor Blocking Profile IC-50, 5-HT2, displacement of labeled 5-HT): 1.7 nM

**Q.** What does the source list for CN1CCCCC1CCc1ccccc1NC(=O)C=Cc1ccccc1.Cl (centres unmarked) [Compound I, 2'[2-(1-methyl-2-piperidyl)ethyl] cinnamanilide hydrochloride]?
**A.** IC50 (Alpha-receptor): > 1000 nM; IC50 (Dopamine-2; [4]): > 1000 nM; IC50 (5-HT1): 22000 nM; blocking contractile effects of 5-HT on human colon rings, correlation with receptor blocking potencies (human colon veins): correlated best with their 5-HT2 blocking potencies; IC50 (human colon veins; [3]): 2 nM; IC50 (5-HT2): 3.4 nM
